Experimental data reported in patent publication US20030109705A1, “Novel cyanoenamines useful as ligands for modulating gene expression in plants or animals” (priority 2001, published 2003).
Values after ≈ are worked out from the molar mass of the structure shown.

Columns and labels:
[1] = molecular target: T1, truncated Manduca EcR-VP16 (Manduca sexta, UniProt P49883); test: Cell-based luciferase reporter assay of transcriptional activation by EcR receptor plasmid (MMV) in S2 Drosophila cells; conditions: ligand 2 μM, harvested 24 hours after addition, ratio relative to reporter construct without ligand
T1 construct: A truncated Manduca EcR containing domains C, D and E of the receptor was constructed as follows; engineered start Met (in-frame ATG) (N); expressed in transfected cells; host or cells: S2 Drosophila cells (ATCC CRL-1963), transiently transfected with plasmid MMV (pPacU backbone)
Description: A minimal promoter vector was made by ligating a synthetic TATA box sequence oligonucleotide pair, 5′-agcttgagggtataatg-3′ (SEQ ID NO: 1) and 3′-actcccatattactcga-5′ (SEQ ID NO:2), into the HindIII site of vector pGL3-basic (Promega) so that the HindIII site was recreated 5′ to the inserted oligonucleotide and destroyed between the oligonucleotide and the downstream luciferase gene. This vector was designated TATA5.
The binding site from the hsp27 gene (Koelle et al., Cell 67(1): 59-77 (1991)) was made with the oligonucleotide pair, 5′-[…]-3′ (SEQ ID NO:3) and 3′-[…]-5′ (SEQ ID NO:4). This site was multimerized and ligated into the BglII site of vector TATA-5. One isolate, pCGS154, contained the sequence below in the inserted region, having 2 pairs of sites in inverted orientations. […] The sequence of the inserted region in pCGS154 is shown below:
PCR primers were designed based on the published sequence for Manduca Sexta ecdysone receptor (EcR) (genbank accession number U19812 (SEQ ID Nos:6 and 7) to clone the gene in two halves. RNA was prepared from prepupae larva of Manduca sexta using the LiCl/phenol method (Current Protocols in Molecular Biology, Vol. 1, Unit 4.3, 1987, John Wiley and Sons, publishers) and 1 μg of total RNA was used to prepare cDNA using MMLV reverse transcriptase (Promega). The cDNA was used in a PCR reaction with the primers described above to generate two PCR products for the 5′ and 3′ halves of the gene. These were subcloned into the pGEM-TA vector (Promega) and sequenced. The two fragments were joined at a unique Ndel site within each fragment and ligated into pBS-KS (Stratagene) to create a full length Manduca sexta EcR clone named pBSFLMa. A HindIII site followed by an inframe stop codon and BamHI site was placed at the 3′ end of the E domain (ligand binding domain) of the Manduca EcR receptor using the oligonucleotide: 5′-[…]-3′ (SEQ ID NO:8).
A truncated Manduca EcR containing domains C, D and E of the receptor was constructed as follows. A BamHI site and in-frame ATG was engineered just 5′ to the C domain using the degenerate primers 5′-ggatccatgggycgagaagaattrtcaccr-3′ (SEQ ID NO:9) and 5′-ccacrtcccagatctcctcga-3′ (SEQ ID NO:10). This fragment was then joined using the Nde site to the 3′ end of Manduca EcR, which has an engineered HindIII site at the 3′ end as described above.
A fragment containing the herpes simplex VP16 transactivation domain was cloned from plasmid 35S/USP-VP16 (U.S. Pat. No. 5,880,333) using the PCR primers 5′-aagcttgcccccccgaccg-3′ (SEQ ID NO:11) (placing a HindIII site at the 5′ end of the domain) and 5′-[…]-3′ (SEQ ID NO:12) (placing an inframe stop codon followed by BamHI and Xbal sites at the 3′ end of the domain). The VP16 domain was fused in frame to the 3′ end of the E domain of the ecdysone receptor using the HindIII site 3′ to EcR clone and the HindIII site engineered at the 5′ end of VP16.
The plasmid pPacU (Courey A J and Tjian R (1988) Cell 55, 887-898) was used as the starting vector for expression constructs. The truncated Manduca EcR-VP16 was ligated into pPacU using the BamHI sites flanking the coding region to create the construct referred to as MMV.
An in vivo cell based assay was used to measure transcriptional activation by the EcR receptor plasmid in the presence of the chemical ligands as described above. S2 Drosophila cells (ATCC CRL-1963) (commonly known as cells from the fruit fly) were transiently transfected with luciferase reporter (pCGS154) and receptor expression plasmid (MMV) using the calcium phosphate precipitation procedure (Di Nocera and David (1983) PNAS 80, 7095-7098). S2 cells were plated in 96 well format at a density of 2×10^5 in 166.6 μl of Schneider's Drosophila media supplemented with antibiotics and 10% heat inactivated fetal bovine serum (GIBO-BRL). […]

Heliothis virescens = Heliothis virescens ovo-larvicide, feeding/contact activity on eggs on artificial diet; type: in vivo; conditions: 144 h, fresh eggs (0 to 24 hours old) on artificial diet, 6 days incubation, read-out: Insecticidal activity (EC80 ppm) Hv
Description: Heliothis virescens (abbreviated as Hv) (commonly known as tobacco budworm): ovo-larvicide, feeding/contact activity. 30 to 35 fresh eggs (0 to 24 hours old), deposited on filter paper, were placed in petri dishes on a layer of artificial diet and 0.8 mL of each test solution of cyanoenamine was individually pipetted onto them. After an incubation period of 6 days, samples were checked for egg mortality, larval mortality, and growth regulation.
Each of Spodopertera littoralis and Heliothis virescens is a larval form of an insect in the order Lepidoptera.

Spodoptera littoralis = Spodoptera littoralis larvicide, feeding/contact activity on sprayed cotton leaf discs; type: in vivo; conditions: foliar, L1 larvae on sprayed cotton leaf discs, checked 2 and 6 days after treatment, read-out: Insecticidal activity (EC80 ppm) SPODLI
Description: Spodoptera littoralis (abbreviated as SPODLI) (commonly known as Egyptian cotton leafworm): larvicide, feeding/contact activity. Cotton leaf discs were placed on agar in petri dishes and individually sprayed with test solution of cyanoenamine in an application chamber. After drying, the leaf discs were infested with 20 to 25 L1 larvae. The samples were checked for mortality, repellent effect, feeding behavior, and growth regulation 2 and 6 days after treatment. Each of Spodopertera littoralis and Heliothis virescens is a larval form of an insect in the order Lepidoptera.

T1 sequence (P49883 112-535, added parts left off): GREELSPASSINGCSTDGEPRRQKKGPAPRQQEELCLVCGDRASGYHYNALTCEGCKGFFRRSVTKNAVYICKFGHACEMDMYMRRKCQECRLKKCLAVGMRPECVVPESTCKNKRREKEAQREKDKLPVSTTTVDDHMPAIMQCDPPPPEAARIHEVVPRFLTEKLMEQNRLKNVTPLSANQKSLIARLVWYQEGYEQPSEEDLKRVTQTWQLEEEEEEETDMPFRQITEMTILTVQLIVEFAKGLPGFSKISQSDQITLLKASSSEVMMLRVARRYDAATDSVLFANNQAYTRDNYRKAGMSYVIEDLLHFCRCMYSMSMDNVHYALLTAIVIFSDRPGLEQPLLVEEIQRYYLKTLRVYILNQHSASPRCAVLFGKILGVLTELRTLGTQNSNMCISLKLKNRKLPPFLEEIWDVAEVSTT
T1 sequence (P20153 whole entry partner, the tested form may be a part): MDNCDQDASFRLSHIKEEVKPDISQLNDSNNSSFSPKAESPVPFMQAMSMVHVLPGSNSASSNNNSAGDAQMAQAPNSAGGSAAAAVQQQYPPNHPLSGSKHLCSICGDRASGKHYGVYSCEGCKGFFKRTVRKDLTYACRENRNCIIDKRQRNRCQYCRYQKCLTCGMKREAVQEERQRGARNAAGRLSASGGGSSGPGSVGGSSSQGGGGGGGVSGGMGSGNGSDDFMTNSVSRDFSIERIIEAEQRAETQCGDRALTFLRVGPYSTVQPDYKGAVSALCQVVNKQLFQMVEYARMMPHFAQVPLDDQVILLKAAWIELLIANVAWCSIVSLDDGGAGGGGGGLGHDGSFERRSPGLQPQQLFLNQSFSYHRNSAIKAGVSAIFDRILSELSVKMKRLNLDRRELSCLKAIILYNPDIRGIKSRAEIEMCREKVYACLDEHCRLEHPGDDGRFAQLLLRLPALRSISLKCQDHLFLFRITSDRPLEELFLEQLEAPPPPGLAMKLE

With `Cc1cc(C)cc(/C(C#N)=C(\NC(=O)c2cccc(C)c2C)C(C)(C)C)c1` [drawing 460] as the compound, how does the “Gene switch activity fold induction” value [1] read?
Its value is 893 fold induction.

How did the “Gene switch activity fold induction” value [1] turn out when `CCc1c(OC)cccc1C(=O)N/C(=C(/C#N)c1ccccc1)C(C)(C)C` was run?
The value was 239 fold induction.

Which “Gene switch activity fold induction” value [1] does the source give for `Cc1cc(C)cc(/C(C#N)=C(\NC(=O)c2cccc(Cl)c2Cl)C(C)(C)C)c1` here?
Its value is 1145 fold induction.

For `COc1cccc(C(=O)N/C(=C(/C#N)c2ccccc2)C(C)(C)C)c1C`, which “Gene switch activity fold induction” value [1] is on record?
Its value is 913 fold induction.

How did the “Gene switch activity fold induction” value [1] turn out when `COc1cccc(C(=O)N/C(=C(/C#N)c2cc(C)cc(C)c2)C(C)(C)C)c1C` [drawing 462] was run?
Its value is 314 fold induction.

`Cc1cc(C)cc(/C(C#N)=C(\NC(=O)c2cccc(C)c2C)C(C)(C)C)c1` [drawing 447] was tested. Which EC80 (Heliothis virescens) did it give?
Its EC80 is 50 µg/mL (≈ 139 µM).

What about the EC80 (Spodoptera littoralis) of the same compound?
The EC80 was 50 µg/mL (≈ 139 µM).

How did the “Gene switch activity fold induction” value [1] turn out when `Cc1cc(C)cc(/C(C#N)=C(\NC(=O)c2cccc(Br)c2C)C(C)(C)C)c1` [drawing 458] was run?
The value was 1121 fold induction.

Which “Gene switch activity fold induction” value [1] does the source give for `Cc1cc(C)cc(/C(C#N)=C(\NC(=O)c2cccc(Cl)c2C)C(C)(C)C)c1` [drawing 453] here?
Its value is 225 fold induction.

How did the EC80 (Heliothis virescens) turn out when `Cc1cc(C)cc(/C(C#N)=C(\NC(=O)c2cccc(Cl)c2C)C(C)(C)C)c1` [drawing 443] was run?
Its EC80 is 5 µg/mL (≈ 13.1 µM).

What about the EC80 (Spodoptera littoralis) of the same compound?
The EC80 was 50 µg/mL (≈ 131 µM).

`CC(C)(C)/C(NC(=O)c1c(F)cccc1F)=C(\C#N)c1ccccc1` [drawing 446] was tested. Which EC80 (Heliothis virescens) did it give?
Its EC80 is greater than 100 µg/mL.

What about the EC80 (Spodoptera littoralis) of the same compound?
The EC80 was greater than 100 µg/mL.

`Cc1cccc(/C(C#N)=C(\NC(=O)c2cccc(C)c2C)C(C)(C)C)c1` was tested. Which “Gene switch activity fold induction” value [1] did it give?
Its value is 66 fold induction.

Which results are given for `CCc1ccc(C(=O)N/C(=C(/C#N)c2ccccc2)C(C)(C)C)cc1` [drawing 450]?
EC80 (Heliothis virescens): > 100 µg/mL; EC80 (Spodoptera littoralis): > 100 µg/mL

Which “Gene switch activity fold induction” value [1] does the source give for `Cc1c(Br)cccc1C(=O)N/C(=C(/C#N)c1ccccc1)C(C)(C)C` here?
Its value is 1112 fold induction.

For `Cc1c(Cl)cccc1C(=O)N/C(=C(/C#N)c1ccccc1)C(C)(C)C`, which “Gene switch activity fold induction” value [1] is on record?
The value was 191 fold induction.

Which “Gene switch activity fold induction” value [1] does the source give for `CCc1ccc(C(=O)N/C(=C(/C#N)c2ccccc2)C(C)(C)C)cc1` [drawing 464] here?
The value was 394 fold induction.

For `Cc1cccc(C(=O)N/C(=C(/C#N)c2ccccc2)C(C)(C)C)c1C`, which “Gene switch activity fold induction” value [1] is on record?
Its value is 636 fold induction.

Which “Gene switch activity fold induction” value [1] does the source give for `CC(C)(C)/C(NC(=O)c1c(F)cccc1F)=C(\C#N)c1ccccc1` [drawing 459] here?
The value was 29 fold induction.

Which EC80 (Heliothis virescens) does the source give for `Cc1cccc(/C(C#N)=C(\NC(=O)c2cccc(Br)c2C)C(C)(C)C)c1` [drawing 444] here?
The EC80 was 200 µg/mL (≈ 486 µM).

What about the EC80 (Spodoptera littoralis) of the same compound?
The EC80 was 200 µg/mL (≈ 486 µM).

For `COc1cccc(C(=O)N/C(=C(/C#N)c2cccc(C)c2)C(C)(C)C)c1C` [drawing 463], which “Gene switch activity fold induction” value [1] is on record?
The value was 364 fold induction.

`Cc1cccc(/C(C#N)=C(\NC(=O)c2cccc(Br)c2C)C(C)(C)C)c1` [drawing 457] was tested. Which “Gene switch activity fold induction” value [1] did it give?
The value was 1012 fold induction.

How did the EC80 (Heliothis virescens) turn out when `Cc1cc(C)cc(/C(C#N)=C(\NC(=O)c2cccc(Br)c2C)C(C)(C)C)c1` [drawing 445] was run?
The EC80 was greater than 50 µg/mL.

What about the EC80 (Spodoptera littoralis) of the same compound?
Its EC80 is greater than 50 µg/mL.

`COc1cccc(C(=O)N/C(=C(/C#N)c2cc(C)cc(C)c2)C(C)(C)C)c1C` [drawing 448] was tested. Which EC80 (Heliothis virescens) did it give?
The EC80 was 100 µg/mL (≈ 266 µM).

What about the EC80 (Spodoptera littoralis) of the same compound?
Its EC80 is 100 µg/mL (≈ 266 µM).

Which EC80 (Heliothis virescens) does the source give for `COc1cccc(C(=O)N/C(=C(/C#N)c2cccc(C)c2)C(C)(C)C)c1C` [drawing 449] here?
Its EC80 is 200 µg/mL (≈ 552 µM).

What about the EC80 (Spodoptera littoralis) of the same compound?
The EC80 was 200 µg/mL (≈ 552 µM).
